Common to all, as to assay type: functional, Artery
Holding throughout (conditions): route intragastric

Assay [1] has as its system Rattus norvegicus. The assay can be described thus: Antihypertensive activity in spontaneously hypertensive Rattus norvegicus (rat) assessed as reduction of systolic blood pressure at 2 mg/kg, ig after 4 hr.
The subject of assay [2] is Rattus norvegicus. The assay can be described thus: Antihypertensive activity in spontaneously hypertensive rat assessed as reduction of systolic blood pressure at 2 mg/kg, ig after 2 hr.
Assay [3] has as its system Rattus norvegicus. Kind of assay: Antihypertensive activity in spontaneously hypertensive Rattus norvegicus (rat) assessed as reduction of systolic blood pressure at 2 mg/kg, ig after 1 hr.
Assay [4] concerns Rattus norvegicus. The assay can be described thus: Antihypertensive activity in spontaneously hypertensive Rattus norvegicus (rat) assessed as reduction of systolic blood pressure at 1 mg/kg, ig after 2 hr.
Assay [5] relates to Rattus norvegicus. The assay can be described thus: Antihypertensive activity in spontaneously hypertensive Rattus norvegicus (rat) assessed as reduction of systolic blood pressure at 1 mg/kg, ig after 1 hr.
The subject of assay [6] is Rattus norvegicus. Kind of assay: Antihypertensive activity in spontaneously hypertensive Rattus norvegicus (rat) assessed as reduction of systolic blood pressure at 4 mg/kg, ig after 8 hr.
For assay [7], the system named is Rattus norvegicus. Kind of assay: Antihypertensive activity in spontaneously hypertensive Rattus norvegicus (rat) assessed as reduction of systolic blood pressure at 4 mg/kg, ig after 6 hr.
Assay [8] deals with Rattus norvegicus. Kind of assay: Antihypertensive activity in spontaneously hypertensive Rattus norvegicus (rat) assessed as reduction of systolic blood pressure at 4 mg/kg, ig after 4 hr.
Assay [9] deals with Rattus norvegicus. Kind of assay: Antihypertensive activity in spontaneously hypertensive Rattus norvegicus (rat) assessed as reduction of systolic blood pressure at 4 mg/kg, ig after 2 hr.
Assay [10] has as its system Rattus norvegicus. Kind of assay: Antihypertensive activity in spontaneously hypertensive Rattus norvegicus (rat) assessed as reduction of systolic blood pressure at 4 mg/kg, ig after 1 hr.

As to `CCCCCCCOC(=O)C1=C(C)NC(C)=C(C(=O)OC)[C@@H]1c1cccc([N+](=O)[O-])c1`, the Activity in the assay with Rattus norvegicus [1] is given as -2 mmHg; in the assay with Rattus norvegicus [2], 47 mmHg; in the assay on Rattus norvegicus [3], 93 mmHg.
As for `CCCCCCCCCCOC(=O)C1=C(C)NC(C)=C(C(=O)OC)C1c1cccc([N+](=O)[O-])c1` (configuration not stated), the Activity in the assay on Rattus norvegicus [3] came out at 31 mmHg.
Take `CCCOC(=O)C1=C(C)NC(C)=C(C(=O)OC)C1c1cccc([N+](=O)[O-])c1` (configuration not stated): the Activity in the assay with Rattus norvegicus [3] is reported as 43 mmHg.
For `CCCCCCCCOC(=O)C1=C(C)NC(C)=C(C(=O)OC)C1c1cccc([N+](=O)[O-])c1` (configuration not stated), the Activity with Rattus norvegicus [3] is 38 mmHg.
Take `CCOC(=O)C1=C(C)NC(C)=C(C(=O)OC)C1c1cccc([N+](=O)[O-])c1` (stereo in doubt; 1) [NITRENDIPINE]: the Activity in the assay with Rattus norvegicus [3] (2 mg/kg) turned out to be 26 mmHg.
With `CCCCCCCCCCCCOC(=O)C1=C(C)NC(C)=C(C(=O)OC)C1c1cccc([N+](=O)[O-])c1` (configuration not stated), in the assay on Rattus norvegicus [3], the Activity worked out at 17 mmHg.
Take `CCOC(=O)C1=C(C)NC(C)=C(C(=O)OC)C1c1cccc([N+](=O)[O-])c1` (stereo in doubt; 2) [NITRENDIPINE]: the Activity in the assay with Rattus norvegicus [1] is -2 mmHg; in the assay on Rattus norvegicus [4], 0 mmHg; with Rattus norvegicus [2], 8 mmHg; in the assay with Rattus norvegicus [5], 33 mmHg; with Rattus norvegicus [3] (2 mg/kg), 39 mmHg.
Take `CCCCCCCOC(=O)C1=C(C)NC(C)=C(C(=O)OC)C1c1cccc([N+](=O)[O-])c1` (racemic): the Activity with Rattus norvegicus [6] is 21 mmHg; with Rattus norvegicus [7], 45 mmHg; with Rattus norvegicus [8], 67 mmHg; with Rattus norvegicus [1], -4 mmHg; in the assay on Rattus norvegicus [9] it was 107 mmHg; with Rattus norvegicus [2] it was 42 mmHg. Besides, the Activity is given as 119 mmHg with Rattus norvegicus [10] and 52 mmHg in the assay with Rattus norvegicus [3].
For the molecule `CCCCCOC(=O)C1=C(C)NC(C)=C(C(=O)OC)C1c1cccc([N+](=O)[O-])c1` (configuration not stated), in the assay with Rattus norvegicus [3], the Activity is 44 mmHg.

These data come from ChEMBL document CHEMBL3046563, “Synthesis and antihypertensive activity evaluation in spontaneously hypertensive rats of nitrendipine analogues” (2011).
